Source: patent publication US20210220376A1, “ADDICTION TREATMENT OF AN ALCOHOL-CONSUMING PATIENT POPULATION” (Amygdala Neurosciences, Inc., priority 2018, published 2021)

Assay: Phase 1 study of compound (2) with ethanol: pharmacokinetics of compound (1) and breath alcohol
Details: after repeated EtOH administration
Excerpt: Plasma concentrations of compound (1) and BrAC were summarized and listed by treatment, subject and timepoint. Pharmacokinetic parameters derived for compound (1) were also summarized and listed by treatment and subject. Pharmacokinetic parameters were estimated using a non-compartmental approach with a log-linear terminal phase assumption. The trapezoidal rule was used to estimate the area under the curve (linear trapezoidal linear interpolation) and the terminal phase will be estimated by maximizing the coefficient of determination estimated from the log-linear regression model. However, AUC0-∞, AUClast/∞, λz and t1/2 parameters were to be estimated for individual concentration-time profiles only when the terminal log-linear phase could be reliably characterized.
Proportionality analysis was done using a power model. The power model was defined as: […]
A linear model with ln-transformed dose as a continuous effect was fitted. A point estimate and a 90% CI was derived for the slope (β). The parameter could be considered to be dose proportional if the 90% confidence interval of the slope β was within [1+ln(0.8)/ln(r), 1+ln(1.25)/ln(r)], where r=the highest dose studied/the lowest dose (Smith et al., “Confidence interval criteria for assessment of dose proportionality.” Pharm Res. 17 (10):1278-83 (2000)).

O=C(NCc1ccc(-c2ccn(COP(=O)(O)O)c(=O)c2)cc1)c1c(Cl)cccc1Cl [Compound (2), phosphoric acid mono-(4-{4-[(2,6-dichloro-benzoylamino)-methyl]-phenyl}-2-oxo-2H-pyridin-1-ylmethyl) ester]
peak breath alcohol concentrations compared with placebo: slightly higher
